According to patent publication US20260256731A1, “RETINAL VASODILATOR AND PHARMACEUTICAL COMPOSITION” (TEIKYO UNIVERSITY, priority 2022, published 2026):
Read-outs that look alike come from different tables or passages of the source.

Tests used:
retinal blood vessel = conditions: cited from earlier work
[1] = test system: porcine retinal artery denuded of endothelium; experiment: Retinal vasodilation test using porcine retinal extraction artery denuded of endothelium (CHAPS); type: cell-based, pig; conditions: n=11, FIG. 3 (Example 3)
Experimental: (§1) Pigs aged 8 to 12 weeks were euthanized. Immediately after euthanization, the eyeballs were excised. A retinal artery was separated from the excised eyeballs (Nagaoka et al., Invest Ophthalmol Vis Sci. 2007 February; 48(2):825-32.). An anterior eye part and a vitreous body were carefully taken out with an anatomical microscope. A posterior eye part was placed in an ice-cold dissection chamber containing a physiological saline solution (PSS: 145.0 mM NaCl, 4.7 mM KCl, 2.0 mM CaCl2), 1.17 mM MgSO4, 1.2 mM NaH2PO4, 5.0 mM glucose, 2.0 mM pyruvic acid, 0.02 mM EDTA, and 3.0 mM [3-(N-morpholino) propanesulfonic acid] (MOPS)) to which 1% albumin was added. A single secondary retinal artery (in-situ inner diameter: 90 to 130 μm, length: 0.6 to 1.0 mm) was carefully dissected using a Dumont microdissection forceps (Fine Science Tools, Inc., Foster City, CA) under observation with a stereomicroscope (model SZX12; Olympus, Melville, NY). […] Thereafter, the inner diameter was continuously measured and recorded during the experiment. […]
(§2) The blood vessel was relaxed with EDTA (1 mM)-calcium-free PSS, and the maximum diameter was obtained at a lumen pressure of 55 cmH2O. The change in diameter of the blood vessel in response to nobiletin was standardized by the maximum vasodilation and expressed as a percentage with respect to the maximum vasodilation.

rat pulmonary artery = conditions: cited from earlier work
rat aorta = conditions: pre-contracted with phenylephrine; vascular endothelium-independent; cited from earlier work
rat mesenteric artery = conditions: pre-contracted with phenylephrine; vascular endothelium-dependent; cited from earlier work
[2] = test system: porcine retinal artery treated with ODQ; experiment: Retinal vasodilation test using porcine retinal extraction artery treated with ODQ (guanylate cyclase inhibitor); type: cell-based, pig
Experimental: as §1, with “added.” for “added. A single secondary retinal artery (in-situ inner diameter: 90 to 130 μm, length: 0.6 to 1.0 mm) was carefully dissected using a Dumont microdissection forceps (Fine Science Tools, Inc., Foster City, CA) under observation with a stereomicroscope (model SZX12; Olympus, Melville, NY).”
as §2, with “vasodilation. […]” for “vasodilation.”
In the same manner as in Example 1, the porcine retinal extraction artery was treated with ODQ, and the role of guanylate cyclase in the retinal vasodilating effect of nobiletin was evaluated (n=7).

porcine retinal artery = experiment: Retinal vasodilation test using porcine retinal extraction artery; type: cell-based, pig
Experimental: Pigs aged 8 to 12 weeks were euthanized. Immediately after euthanization, the eyeballs were excised. A retinal artery was separated from the excised eyeballs (Nagaoka et al., Invest Ophthalmol Vis Sci. 2007 February; 48(2):825-32.). An anterior eye part and a vitreous body were carefully taken out with an anatomical microscope. A posterior eye part was placed in an ice-cold dissection chamber containing a physiological saline solution (PSS: 145.0 mM NaCl, 4.7 mM KCl, 2.0 mM CaCl2), 1.17 mM MgSO4, 1.2 mM NaH2PO4, 5.0 mM glucose, 2.0 mM pyruvic acid, 0.02 mM EDTA, and 3.0 mM [3-(N-morpholino) propanesulfonic acid] (MOPS)) to which 1% albumin was added. A single secondary retinal artery (in-situ inner diameter: 90 to 130 μm, length: 0.6 to 1.0 mm) was carefully dissected using a Dumont microdissection forceps (Fine Science Tools, Inc., Foster City, CA) under observation with a stereomicroscope (model SZX12; Olympus, Melville, NY). After carefully removing the remaining nerve tissue and connective tissue, an artery was transferred to a Lucite-made blood vessel chamber into which a PSS-albumin solution equilibrated with air at room temperature was added for cannula insertion. A glass micro pipette (outer diameter of distal end: 30 to 40 μm) filled with the PSS-albumin solution was used to cannulate one end of the artery, and the outside of the artery was firmly tied to a pipette with 11-0 ophthalmic suture (Alcon, Fort Worth, TX). The other end of the blood vessel was cannulated with a second micro pipette and fixed with a suture. After the cannula insertion, the blood vessel and the pipette were transferred to the stage of an inverted microscope (model CKX41, Olympus); and a video camera (Sony DXC-190, Labtek, Campbell, CA), a video micrometer (Cardiovascular Research Institute, Texas A&M System Health Science Center, College Station, TX), and a data collection system (PowerLab, ADInstruments, Colorado Springs, CO) were connected to each other. Thereafter, the inner diameter was continuously measured and recorded during the experiment. The micro pipette was connected to an independent pressure reservoir (a 30 mL glass syringe). The blood vessel was pressurized to a lumen pressure of 55 cm H2O (40 mmHg) by adjusting the height of the reservoir.
The cannula-inserted arteriole was immersed in PSS at 36° C. to 37° C. to generate a basal tone. […] After the control reaction was terminated, the blood vessel was washed with PSS, and the basal tone was re-generated. […]
as §2, with “vasodilation. […]” for “vasodilation.”

CC#CCC(C)[C@H](O)/C=C/[C@@H]1[C@H]2c3cccc(CCCC(=O)O)c3O[C@H]2C[C@H]1O (mixture of isomers) [Beraprost]
Maximum vasodilation rate (retinal blood vessel; concentration 10^-7M): 70%

O=C1CCc2cc(OCCCCc3nnnn3C3CCCCC3)ccc2N1 [Cilostazol]
Maximum vasodilation rate (retinal blood vessel; concentration 10^-5M): 40%

COc1ccc(-c2cc(=O)c3c(OC)c(OC)c(OC)c(OC)c3o2)cc1OC [Nobiletin, 2-(3,4-Dimethoxyphenyl)-5,6,7,8-tetramethoxychromen-4-one]
vasodilating effect in artery with vascular endothelium removed (denudation) compared with artery not denuded [1]: suppressed
vasodilator response (rat pulmonary artery): did not occur
vasodilating action (rat aorta): vasodilating action
vasodilating action (rat mesenteric artery): vasodilating action
retinal vasodilating effect after treating the blood vessel with ODQ ([2]; ODQ 0.1 μM, 30 minutes, FIG. 1 (Example 1)): suppressed
retinal vasodilating effect after addition of ODQ ([2]; n=7, FIG. 4 (Example 4)): suppressed
retinal vasodilating effect compared with positive control SNP (porcine retinal artery; FIG. 1 (Example 1)): higher than that of SNP
Maximum vasodilation rate (porcine retinal artery; concentration 10^-4M, percentage with respect to the maximum vasodilation): 90%
retinal vasodilating effect (porcine retinal artery; extracted porcine retinal artery, FIG. 1 (Example 1)): strong retinal vasodilating effect in a dose-dependent manner
vasodilating action in comparison with known medications (porcine retinal artery; influence of the solvent excluded, Table 1): most powerful vasodilating action

Oc1ccc(C=Cc2cc(O)cc(O)c2)cc1 [Resveratrol]
Maximum vasodilation rate (retinal blood vessel; concentration 10^-4M): 60%

CCCCCCCC(=O)CC[C@@H]1[C@@H](C/C=C\CCCC(=O)O)[C@@H](O)C[C@H]1O [Unoprostone]
Maximum vasodilation rate (retinal blood vessel; concentration 10^-5M): 30%

B1: Adiponectin (protein, UniProt Q15848 19-244, looked up)
Adiponectin: ETTTQGPGVLLPLPKGACTGWMAGIPGHPGHNGAPGRDGRDGTPGEKGEKGDPGLIGPKGDIGETGVPGAEGPRGFPGIQGRKGEPGEGAYVYRSAFSVGLETYVTIPNMPIRFTKIFYNQQNHYDGSTGKFHCNIPGLYYFAYHITVYMKDVKVSLFKKDKAMLFTYDQYQENNVDQASGSVLLHLEVGDQVWLQVYGEGERNGLYADNDNDSTFTGFLLYHDTN
Maximum vasodilation rate (retinal blood vessel; concentration 8 μg/mL): 50%
